Entries after “also recorded” stand apart in the source; their conditions may differ. Where a SMILES comes first, the peptide text is derived from it.

One experiment deals with C. tropicalis. Kind of experiment: In vitro candidacidal assay, C. tropicalis. It is filed as cell-based. The following applies: 400 μg/ml (150 μM). The protocol: (§1) Isolates used in this study included Candida albicans (ATCC 28367), three fluconazole sensitive mucosal isolates of C. albicans, designated A-22, A-111 and A-155, three fluconazole resistant mucosal isolates of C. albicans designated A-46, A-5, and A-20, and a blood isolate of C. albicans designated WDO. Isolates were stored frozen at −70° C. and streaked onto Sabouraud Dextrose Agar (Sigma, St. Louis, Mo.) plates and maintained on plates at 4° C., with subculturing onto new plates approximately every 10 days for the duration of the studies. Fluconazole resistance was evaluated. Three clinical isolates of C. glabrata, two clinical isolates of C. dubliniensis, and single isolate each of C. krusei, C. guilliermondii, C. parapsilosis, C. pseudotropicalis and C. tropicalis and two isolates of Saccharomyces cerevisiae were also used in this study and were maintained on Sabouraud Dextrose agar plates at 4° C. A single yeast colony was cultured overnight at 33° C. in 1% phytone peptone broth (Becton Dickinson, Sparks Md.) with 0.1% D-glucose (Sigma).
(§2) Stock solutions of all peptides were made up at concentrations of 1 mg/ml in sterile endotoxin-free water for irrigation (Baxter, Deerfield, Ill.). Subsequent dilutions were all made in tryptone saline pH 5.5 (Shafer et al., Infect Immun, 1984). […] The optical density was read and the culture adjusted to 500 blastospores/100 μl in tryptone saline pH 5.5 (Shafer et al., Infect Immun, 1984). […] The colony forming units (cfu) were counted and the fungicidal activity was expressed as percent killed and calculated according to the following equation: [(control cfu−test cfu)/control cfu]×100=% killed. […] Test cfu is determined by counting the number of colonies present after incubation in tryptone saline containing the peptide. […]

For the next experiment, the system named is Candida albicans. In kind it is cell-based. The method, then: as §1
Stock solutions of all peptides were made up at concentrations of 1 mg/ml in sterile endotoxin-free water for irrigation (Baxter, Deerfield, Ill.). Subsequent dilutions were all made in tryptone saline pH 5.5 (Shafer et al., Infect Immun, 1984). An aliquot (100 μl) of an overnight culture of a single colony grown at 33° C. in 1% phytone peptone broth with 0.1% glucose was subcultured in 5 ml of 1% phytone peptone broth with 0.1% glucose and incubated in a shaking water bath (80 oscillations per min, Precision, Winchester, Va.) for 90 min at 33° C. to yield a logarithmic culture. […] The optical density was read and the culture adjusted to 500 blastospores/100 μl in tryptone saline pH 5.5 (Shafer et al., Infect Immun, 1984). To 100 μl of the organism suspension in a 96 well sterile polystyrene microtiter plate (Becton Dickinson, Franklin Lakes, N.J.) was added 100 μl of the peptide (final concentrations 400 μg/ml and 200 μg/ml) or 100 μl of tryptone saline. The latter served as a control. The microtiter plate was incubated at 37° C. for 4 hr and 100 μl of the contents from each well was plated on Sabouraud Dextrose agar plates and incubated at 37° C. overnight. The colony forming units (cfu) were counted and the fungicidal activity was expressed as percent killed and calculated according to the following equation: [(control cfu−test cfu)/control cfu]×100=% killed. Control cfu is indicated by the number of colonies present after […] of incubation in tryptone saline alone in the absence of peptide. Test cfu is determined by counting the number of colonies present after incubation in tryptone saline containing the peptide. Each experimental point was performed in triplicate.
C. albicans (ATCC 28367) was used to standardize the in vitro killing assay. We explored the optimal growth conditions (temperature and time, 25° C. for 5 h and 33° C. for 90 min), numbers of blastospores per well (200, 400, 500, 600, 800, and 1000 cfu), range of peptide concentrations (750, 500, 400, 200 and 100 μg/ml) and the contact time between peptide and Candida (1, 2 and 4 hr) for killing to occur. […] The 90 minute incubation was more convenient technically and was therefore employed routinely. The optimum numbers of cfu per well was determined to be 500 and an incubation time of 4 hr at 37° C. between Candida and peptide was required to obtain optimal killing.

The subject of the next experiment is C. glabrata. Kind of experiment: In vitro candidacidal assay, C. glabrata. In kind it is cell-based. The settings on record: one isolate of three; 400 μg/ml (150 μM). The method, then: as §1, §2
Experiment [1] concerns C. albicans (fluconazole sensitive isolate). Kind of experiment: FUN-1 vital dye yeast viability, confocal microscopy, C. albicans. In kind it is cell-based, Candida albicans. The following applies: 400 μg/ml, 37° C. for 2 hr. The method, then:
Yeast viability was also assessed using the FUN-1 Live/Dead Yeast Viability Kit (Molecular Probes, Eugene, Oreg.). The methodology employed was essentially according to the protocol provided by the vendor for use with fluorescent microscopy. Briefly, yeast cultures were prepared exactly as stated above. C. glabrata, C. pseudotropicalis, C. albicans (fluconazole sensitive isolate) and S. cerevisiae (5×10^5 cfu in 100 μl of tryptone saline) were incubated (37° C. for 2 hr) in the absence or presence of peptide (CAP37(20-44)nat and CAP37(20-44)ser26/42) at a final concentration of 400 μg/ml. At the end of the incubation period, the samples were transferred to microcentrifuge tubes and centrifuged (10,000×g for 3 min at room temperature). The supernatant was removed and the pellet resuspended in 25 μl of GH solution (2% D-glucose containing 10 mM Na-HEPES, pH 7.2) as described in the technical data sheet provided by the vendor. A working solution of the FUN-1 reagent (100 μl of 10 μM) was prepared from 10 mM stock solution and 25 μl (final concentration 5 μM) added to the yeast and incubated at room temperature for 30 min. A sample (10 μl) was placed on a microscope slide and staining observed under a Leica TCS NT confocal microscope using Ar-488 and Kr-568 Lasers and 63x Plan APO 1.2 NA water immersion objective. Images were scanned and analyzed using the Leica TCS software.

For experiment [2], the system named is E. coli lipopolysaccharide (LPS). The following applies: conscious rat; cited from earlier work.
Another experiment relates to C. dubliniensis. As to the kind of experiment: In vitro candidacidal assay, C. dubliniensis. In kind it is cell-based. The following applies: two isolates; 400 μg/ml (150 μM). The method, then: as §1, §2
Experiment [3] relates to Salmonella typhimurium, Escherichia coli, and Pseudomonas aeruginosa. The settings on record: Gram negative organisms; cited from earlier work.

In the case of `CC[C@H](C)[C@H](NC(=O)[C@H](CC(C)C)NC(=O)[C@H](C)NC(=O)CNC(=O)CNC(=O)[C@H](CS)NC(=O)[C@H](Cc1ccccc1)NC(=O)[C@H](Cc1c[nH]cn1)NC(=O)[C@H](CCCNC(=N)N)NC(=O)CNC(=O)[C@H](CCC(N)=O)NC(=O)[C@@H](N)CC(N)=O)C(=O)N[C@@H](Cc1c[nH]cn1)C(=O)N[C@@H](C)C(=O)N[C@@H](CCCNC(=N)N)C(=O)N[C@@H](Cc1ccccc1)C(=O)N[C@H](C(=O)N[C@@H](CCSC)C(=O)N[C@H](C(=O)N[C@@H](C)C(=O)N[C@@H](C)C(=O)N[C@@H](CO)C(=O)N[C@@H](CS)C(=O)N[C@@H](Cc1ccccc1)C(=O)N[C@@H](CCC(N)=O)C(=O)O)[C@@H](C)O)C(C)C` [CAP37(20-44)nat, NQGRHFCGGALIHARFVMTAASCFQ] (H-NQGRHFCGGALIHARFVMTAASCFQ-OH; N-terminus and C-terminus assumed), in the experiment with C. tropicalis, the “activity against C. tropicalis” value was “killed”. In the experiment on Candida albicans, this molecule displayed a killing greater than 75%. For the same molecule, in the experiment on Candida albicans (C. albicans ATCC 28367, 750, 500, 400, 200 and 100 μg/ml), the “killing with varying peptide concentrations” value was “Dose dependent killing”. In the experiment on Candida albicans (blood isolate of C. albicans, 400 μg/ml (150 μM)), the “killing of blood isolate of Candida” value is listed as “killed”. Moreover, the “peptide concentration required for activity” value in the experiment on Candida albicans (fluconazole resistant isolate A-46) was 400 µg/mL. For the same molecule, the “activity at the lower concentration” value with Candida albicans (fluconazole resistant isolates A-5 and A-20, 200 μg/ml or 75 μM) is listed as “significant activity”. Moreover, the “activity against C. albicans” value in the experiment on Candida albicans (in vitro killing efficacy) is reported as “significant activity”. The “fungicidal or fungistatic effect” value with Candida albicans (isolates A-5, A-20, A-46 and A-155, viable colony counts versus starting inoculum) is “fungicidal rather than fungistatic”. The “activity against fluconazole resistant isolates” value in the experiment with Candida albicans (isolates A-5 and A-20) is listed as “highly active”. Besides, the “activity against fluconazole sensitive isolates” value in the experiment with Candida albicans (isolates A-155, A-22 and A-111, 400 μg/ml) is listed as “strongly active”. Also, in the experiment on C. glabrata, the “activity against C. glabrata” value was “effective against both isolates of C. dubliniensis and one isolate of C. glabrata, although to a lesser extent”. For the same molecule, the “blastoconidia stained green or green-yellow (dead)” value in experiment [1] is 70-80%. In addition, in experiment [2], the “efficacy against lethal effects of LPS” value is “attenuating the lethal effects”. The “activity against C. dubliniensis” value in the experiment with C. dubliniensis was “effective against both isolates of C. dubliniensis and one isolate of C. glabrata, although to a lesser extent”. Further, in experiment [3], the bactericidal activity result is given as “potent bactericidal activity; also recorded: mimicked the antimicrobial activity of the native molecule”.
